The target of one data set is hCA I (Homo sapiens, UniProt P00915). Kind of data set: stopped-flow CO2 hydrase assay, hCA I.
A further data set addresses hCA II (Homo sapiens, UniProt P00918). Nature of the data set: stopped-flow CO2 hydrase assay, hCA II.
For a further data set, the target named is hCA IX (Homo sapiens, UniProt Q16790). Nature of the data set: stopped-flow CO2 hydrase assay, hCA IX. As to conditions: recombinant hCA IX, 6 h preincubation, mean from three assays, errors ±5–10%.
For another data set, the target named is hCA XII (Homo sapiens, UniProt O43570). Kind of data set: stopped-flow CO2 hydrase assay, hCA XII.
Details of data set [1]: method as in PMID 20024932. The settings on record: hepatotoxic effect of coumarin; cited from earlier work.

Like-named read-outs stand apart in the source and are kept apart here.

Sequence of hCA I (P00915 whole entry): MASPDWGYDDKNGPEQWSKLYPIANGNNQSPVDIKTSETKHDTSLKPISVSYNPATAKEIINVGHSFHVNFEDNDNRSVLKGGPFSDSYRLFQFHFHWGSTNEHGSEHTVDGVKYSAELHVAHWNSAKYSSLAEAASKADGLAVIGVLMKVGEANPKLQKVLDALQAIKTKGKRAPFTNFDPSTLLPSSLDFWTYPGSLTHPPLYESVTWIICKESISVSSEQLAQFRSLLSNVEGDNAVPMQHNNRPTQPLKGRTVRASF
Sequence of hCA XII (O43570 25-354): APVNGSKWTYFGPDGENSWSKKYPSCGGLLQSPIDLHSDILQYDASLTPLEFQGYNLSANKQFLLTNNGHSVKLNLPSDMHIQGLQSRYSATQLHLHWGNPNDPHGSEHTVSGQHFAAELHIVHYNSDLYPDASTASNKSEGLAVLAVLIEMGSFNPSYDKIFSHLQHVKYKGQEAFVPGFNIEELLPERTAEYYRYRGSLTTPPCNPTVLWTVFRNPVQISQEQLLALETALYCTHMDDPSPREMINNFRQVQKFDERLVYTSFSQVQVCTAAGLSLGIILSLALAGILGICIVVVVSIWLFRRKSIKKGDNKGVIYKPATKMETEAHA
Method for hCA II: (§1) An Applied Photophysics stopped-flow instrument has been used for assaying the CA catalyzed CO2 hydration activity [24]. […] The uncatalyzed rates were determined in the same manner and subtracted from the total observed rates. Stock solutions of inhibitor (0.1 mM) were prepared in distilled-deionized water and dilutions up to 0.005 nM were done thereafter with the assay buffer. Inhibitor and enzyme solutions were preincubated together for 6 hours at room temperature prior to assay, in order to allow for the formation of the E-I complex. The inhibition constants were obtained by nonlinear least-squares methods using PRISM 3 (GraphPad Software, San Diego, CA, USA) and the Cheng–Prusoff equation, as reported by Maresca et al. [14], and represent the mean from at least three different determinations. All CA isoforms were recombinant ones obtained in-house.
Method for hCA IX: as §1
Method for hCA XII: as §1

On to `Cc1cc(=O)oc2cc(O)ccc12` [Compound 1, 7-Hydroxy-4-methylchromen-2-one], for which the Ki at hCA I was > 10000 nM; on hCA II, > 10000 nM; on hCA IX (Ki (nM) hCA IX) it was 32.1 nM; on hCA XII it was 5.8 nM.
For `Cc1cc(=O)oc2c(CN3CCN(Cc4c(O)ccc5c(C)cc(=O)oc45)CC3)c(O)ccc12` [Compound 2, 1,4-bis[(7-Hydroxy-4-methylcoumarin-8-yl)methyl] piperazine], the Ki at hCA I is > 10000 nM; on hCA II it was > 10000 nM; at hCA IX (Ki (nM) hCA IX) it was 67.5 nM; on hCA XII, 8.5 nM.
Regarding `Cc1cc(=O)oc2c(CN3CCN(C)CC3)c(O)ccc12` [Compound 3, 7-Hydroxy-4-methyl-8-(4-methylpiperazin-1-ylmethyl)chromen-2-one], the Ki on hCA I was > 10000 nM; on hCA II, > 10000 nM; at hCA IX (Ki (nM) hCA IX) it was 88.7 nM; at hCA XII, 9.6 nM.
With `CCN1CCN(Cc2c(O)ccc3c(C)cc(=O)oc23)CC1` [Compound 4, 8-(4-Ethylpiperazin-1-ylmethyl)-7-hydroxy-4-methylchromen-2-one], the Ki on hCA I is > 10000 nM; on hCA II, > 10000 nM; on hCA IX (Ki (nM) hCA IX) it was 32 nM; at hCA XII, 6.4 nM.
As for `Cc1cc(=O)oc2c(CN3CCN(CCO)CC3)c(O)ccc12` [Compound 5, 7-Hydroxy-8-[4-(2-hydroxyethyl)piperazin-1-ylmethyl]-4-methylchromen-2-one], the Ki on hCA I is > 10000 nM; at hCA II it was > 10000 nM; at hCA IX (Ki (nM) hCA IX) it was 295 nM; on hCA XII, 7.1 nM.
On to `C=CCN1CCN(Cc2c(O)ccc3c(C)cc(=O)oc23)CC1` [Compound 6, 8-(4-Allylpiperazin-1-ylmethyl)-7-hydroxy-4-methylchromen-2-one], for which the Ki was > 10000 nM on hCA I, > 10000 nM on hCA II, 27.1 nM at hCA IX (read-out: Ki (nM) hCA IX) and 5.6 nM at hCA XII.
Regarding `Cc1cc(=O)oc2c(CN3CCN(c4ccccc4)CC3)c(O)ccc12` [Compound 7, 7-Hydroxy-4-methyl-8-(4-phenylpiperazin-1-ylmethyl)chromen-2-one], the Ki at hCA I was > 10000 nM; on hCA II, > 10000 nM; at hCA IX (Ki (nM) hCA IX), 115 nM; on hCA XII, 7.7 nM.
Turning to `Cc1cc(=O)oc2c(CN3CCN(c4ccc(Cl)cc4)CC3)c(O)ccc12` [Compound 8, 8-[4-(4-Chlorophenyl)piperazin-1-ylmethyl]-7-hydroxy-4-methylchromen-2-one], the Ki at hCA I is > 10000 nM; on hCA II it was > 10000 nM; on hCA IX (Ki (nM) hCA IX), 190 nM; on hCA XII, 8.9 nM.
As for `Cc1cc(=O)oc2c(CN3CCN(c4ccc(F)cc4)CC3)c(O)ccc12` [Compound 9, 8-[(4-(4-Fluorophenyl)piperazin-1-yl)methyl]-7-hydroxy-4-methylchromen-2-one], the Ki is > 10000 nM at hCA I, > 10000 nM at hCA II, 92.8 nM at hCA IX (Ki (nM) hCA IX) and 8.1 nM on hCA XII.
`Cc1cc(=O)oc2c(CN3CCN(c4ccc(Br)cc4)CC3)c(O)ccc12` [Compound 10, 7-Hydroxy-8-[4-(bromophenyl)-piperazin-1-ylmethyl]-4-methylchromen-2-one]: the Ki at hCA I was > 10000 nM; on hCA II, > 10000 nM; at hCA IX (Ki (nM) hCA IX) it was 162 nM; at hCA XII, 9.4 nM.
For `Cc1ccc(N2CCN(Cc3c(O)ccc4c(C)cc(=O)oc34)CC2)cc1` [Compound 11, 7-Hydroxy-4-methyl-8-(4-p-tolyl-piperazin-1-ylmethyl)chromen-2-one], the inhibition constant Ki at hCA I is > 10000 nM; at hCA II, > 10000 nM; at hCA IX (Ki (nM) hCA IX), 308 nM; on hCA XII it was 9.6 nM.
For the compound `Cc1cc(=O)oc2c(CN3CCN(c4ccccc4F)CC3)c(O)ccc12` [Compound 12, 8-[4-(2-Fluorophenyl)piperazin-1-ylmethyl]-7-hydroxy-4-methylchromen-2-one], the Ki on hCA I is > 10000 nM; at hCA II, > 10000 nM; on hCA IX (Ki (nM) hCA IX), 121 nM; at hCA XII, 26.4 nM.
Take `Cc1cc(=O)oc2c(CN3CCN(Cc4ccc5c(c4)OCO5)CC3)c(O)ccc12` [Compound 13, 8-(4-Benzo[1,3]dioxol-5-ylmethyl-piperazin-1-ylmethyl)-7-hydroxy-4-methyl-chromen-2-one]: the Ki at hCA I is > 10000 nM; at hCA II it was > 10000 nM; at hCA IX (Ki (nM) hCA IX), 76.8 nM; on hCA XII, 8.5 nM.
As for `O=c1ccc2ccccc2o1` [coumarin], the tolerable daily intake in data set [1] is given as 0.1 mg/kg body weight.

What is called Ki is the dissociation constant of the complex between target and ligand, obtained from inhibition or displacement.

(Values after publication PMC6429297, “Novel 8-Substituted Coumarins That Selectively Inhibit Human Carbonic Anhydrase IX and XII” (International Journal of Molecular Sciences, 2019).)
